Assay type in all cases: in vivo
Assay [1] deals with Lolium multiflorum (LOLMU). Kind of assay: Post-emergence application in greenhouse trials, LOLMU. As to conditions: 20 DAT; growth stage 13; 0.3 g ai/ha. The method, then: (§1) In the examples below, using the method of S. R. Colby (1967) “Calculating synergistic and antagonistic responses of herbicide combinations”, Weeds 15, p. 22ff., the value E, which is expected if the activity of the individual active compounds is only additive, was calculated: E=X+Y−(X·Y/100) • where • X=percent activity using active herbicide A at an application rate a; • Y=percent activity using active trifludimoxazin at an application rate b; • E=expected activity (in %) by A+B at application rates a+b.
(§2) If the value found experimentally is higher than the value E calculated according to Colby, a synergistic effect is present.
(§3) The culture containers used were plastic pots containing loamy sand with approximately 3.0% of humus as substrate. The seeds of the test plants were sown separately for each species.
(§4) For the post-emergence treatment, the test plants were grown to a plant height of from 3 to 15 cm, depending on the plant habit, and only then treated with the active compounds which had been suspended or emulsified in water. To this end, the test plants were either sown directly, and grown in the same containers, or they were first grown separately as seedlings and transplanted into the test containers a few days prior to treatment.
(§5) Depending on the species, the plants were kept at 10-25° C. and 20-35° C., respectively.
(§6) The test period extended over 2 to 4 weeks. During this time, the plants were tended and their response to the individual treatments was evaluated.
(§7) Evaluation was carried out using a scale from 0 to 100. 100 means no emergence of the plants, or complete destruction of at least the above-ground parts, and 0 means no damage or normal course of growth. A good herbicidal activity is given at values of at least 70, and very good herbicidal activity is given at values of at least 85.
(§8) In the greenhouse trials, unless indicated otherwise, herbicide A, trifludimoxazin and saflufenacil were formulated (50 g/I) and applied with addition of 1% MSO (methylated seed oil) as adjuvant. The solvent used was water (200 I/ha).

Assay [2] concerns Abutilon theophrasti (ABUTH). Put plainly: Post-emergence application in greenhouse trials, ABUTH. The method, then:
as §1, §2, §3, §4, §5, §6, §7, §8

The next assay has as its system Kochia scoparia (KCHSC). Put plainly: Post-emergence application in greenhouse trials, KCHSC. On the procedure:
as §1, §2, §3, §4, §5, §6, §7, §8

A further assay concerns Setaria viridis (SETVI). Put plainly: Post-emergence application in greenhouse trials, SETVI. The method, then:
as §1, §2, §3, §4, §5, §6, §7, §8

Assay [3] deals with Avena fatua (AVEFA). Put plainly: Post-emergence application in field trials, AVEFA. Conditions: 29 DAT; water volume 100 l/ha; pre plant burndown; growth stage 14-23; height 24-40 cm; 18 g ai/ha. The method, then: as §1, §2
(§9) On field test sites, natural weed infestation or seeded weeds were treated post-emergence of the weeds.
(§10) In the field trials, the weedy plants were treated as indicated below.
(§11) Herbicide A-1 (342 g/I), trifludimoxazin (500 g/I) and saflufenacil (342 g/I) were, together with addition of 1% MSO (methylated seed oil) as adjuvant (unless indicated otherwise), formulated in water as distribution medium as indicated and sprayed with commercial flat fan nozzles.
(§12) In the following experiments, the herbicidal activity for the individual herbicidal compositions (solo and mixture applications) was assessed at the indicated days after treatment (DAT). The assessments for the damage on undesired weeds caused by the composition was carried out using a scale from 0 to 100%, compared to the untreated control plants. Here, 0 means no damage and 100 means complete destruction of the plants.
(§13) Herbicide A-1 (100 g/l) and trifludimoxazin (500 g/l) were, together with addition of 1% MSO (methylated seed oil) as adjuvant (unless indicated otherwise), formulated in water as distribution medium as indicated and sprayed with commercial flat fan nozzles.

The subject of another assay is Hordeum vulgare (HORVS). Put plainly: Post-emergence application in field trials, HORVS. As to conditions: 29 DAT; water volume 100 l/ha; pre plant burndown; growth stage 15-24; height 25-45 cm; 18 g ai/ha. The method, then: as §1, §2, §9, §10, §11, §12, §13
The subject of assay [4] is Digitaria sanguinales (DIGSA). Put plainly: Post-emergence application in greenhouse trials, DIGSA. As to conditions: 7 DAT; GS 12; C-1 0.3 g ai/ha. The method, then:
as §1, §2, §3, §4, §5, §6, §7, §8

For assay [5], the system named is Avena fatua (AVEFA). Kind of assay: Post-emergence application in greenhouse trials, AVEFA. Conditions: 20 DAT; growth stage 13; 0.3 g ai/ha. On the procedure: as §1, §2, §3, §4, §5, §6, §7, §8
The subject of assay [6] is Sorghum halapense (SORHA). Kind of assay: Post-emergence application in greenhouse trials, SORHA. Conditions: 20 DAT; growth stage 14; 0.9 g ai/ha. The method, then: as §1, §2, §3, §4, §5, §6, §7, §8
The test system of assay [7] is Commelina benghalensis (COMBE). Put plainly: Post-emergence application in greenhouse trials, COMBE. Conditions: 20 DAT; growth stage 21; 0.9 g ai/ha. The method, then: as §1, §2, §3, §4, §5, §6, §7, §8

This note sets out measurements from patent publication US12213483B1, “Herbicidal compositions comprising trifludimoxazin” (BASF SE, priority 2024, dated 2025).

Where “and” joins values, the source holds several entries; their conditions need not be identical. Equal entries are not always repeated.

In the case of `CC(C)N(C)S(=O)(=O)NC(=O)c1cc(-n2c(=O)cc(C(F)(F)F)n(C)c2=O)c(F)cc1Cl` [C-1, saflufenacil], the “% Herbicidal activity” value in [1] amounted to 0%; in [2] (6 DAT, GS 33, C-1 1.1 g ai/ha), 45%; in assay [2] (20 DAT, growth stage 33, 1.1 g ai/ha), 0%; with Kochia scoparia (KCHSC) (6 DAT, GS 33, C-1 0.5 g ai/ha), 60%; in the assay on Kochia scoparia (KCHSC) (20 DAT, growth stage 33, 0.5 g ai/ha), 40%; with Kochia scoparia (KCHSC) (20 DAT, growth stage 33, 0.9 g ai/ha) it was 60%. Also, the “% Herbicidal activity” value was 35% with Setaria viridis (SETVI) (7 DAT, GS 14, C-1 0.9 g ai/ha); 35% in the assay with Setaria viridis (SETVI) (20 DAT, growth stage 14, 0.9 g ai/ha); 0% with Avena fatua (AVEFA) [3]; 0% with Hordeum vulgare (HORVS); 10% and 15% in assay [4]; 0% in the assay on Avena fatua (AVEFA) [5]. The “% Herbicidal activity” value in [6] turned out to be 0%; in [7], 80%.
